Assay [1] relates to MCF-7 cells. Put plainly: Breast Cancer Cell Viability Assay (MCF-7, CellTiter-Glo). To be noted: 5 days' compound exposure; for IC50: Homo sapiens, MCF7, 120 h. The format is cell-based. The gist of the method: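 MCF-7 cells, 320 per well in RPMI with 10% FBS and 20 mM HEPES, adhered overnight, then exposed 5 days to an eleven-point semilog dilution (final 0.3-0.000003 μM). CellTiter-Glo luminescence read; % viability = (sample − cell-free background)/(untreated − background) × 100.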

The target of assay [2] is T1, ER-α (Homo sapiens, UniProt P03372).
T1 sequence (P03372 1-595): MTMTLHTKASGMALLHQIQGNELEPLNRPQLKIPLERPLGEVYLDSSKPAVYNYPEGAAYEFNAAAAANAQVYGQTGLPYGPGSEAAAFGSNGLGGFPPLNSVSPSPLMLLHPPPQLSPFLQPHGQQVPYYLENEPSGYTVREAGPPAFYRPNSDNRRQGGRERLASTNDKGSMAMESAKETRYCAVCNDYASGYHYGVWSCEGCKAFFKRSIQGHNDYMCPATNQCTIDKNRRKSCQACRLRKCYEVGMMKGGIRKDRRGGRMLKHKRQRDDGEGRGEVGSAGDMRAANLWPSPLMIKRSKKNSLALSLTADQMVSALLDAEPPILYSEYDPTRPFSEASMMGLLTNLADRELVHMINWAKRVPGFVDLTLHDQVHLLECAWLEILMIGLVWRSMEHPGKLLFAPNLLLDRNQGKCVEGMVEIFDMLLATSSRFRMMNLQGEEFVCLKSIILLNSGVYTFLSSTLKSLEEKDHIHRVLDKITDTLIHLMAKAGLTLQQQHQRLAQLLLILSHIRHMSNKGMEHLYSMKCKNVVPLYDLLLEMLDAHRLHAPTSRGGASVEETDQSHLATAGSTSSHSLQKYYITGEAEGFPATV
Put plainly: Breast Cancer Cell ER-α In Cell Western Assay (SP1). Conditions: MCF-7 cells, SP1 antibody, 4 or 24 hr post compound addition; for Emax: MCF7, read-out: ER-α In Cell Western Assay (SP1) Max Response; for DC50: read-out: ER-α In Cell Western Assay (SP1) IC50. The format is cell-based. The gist of the method: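 ER-α protein levels measured by in-cell western with SP1 antibody, ratioed to DRAQ5 DNA signal and given as percent of untreated controls. Compounds added at 0.3–0.000003 μM final (eleven semilog points) to adherent MCF-7 cells in stripped serum; exposure 4 or 24 h before fixation.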

As usually defined, the IC50 is the concentration at which inhibition is half-maximal.

`CC/C(=C(/c1ccc(/C=C/C(=O)O)cc1)c1ccc2[nH]nc(F)c2c1)c1ccccc1` [Compound 86, (E)-3-(4-((E)-1-(3-Fluoro-1H-indazol-5-yl)-2-phenylbut-1-en-1-yl)phenyl)acrylic acid]: in assay [1], the “MCF7 Viability Assay Max Response” value is “++ (++ = a single % value ≧ 40%)” and the IC50 is not above 100 nM. In assay [2], the Emax was not below 40% and the DC50 was not above 100 nM.
Take `O=C(O)/C=C/c1ccc(/C(=C(\c2ccccc2)C2CCC2)c2ccc3[nH]nc(F)c3c2)cc1` [Compound 87, (E)-3-(4-((E)-2-Cyclobutyl-1-(3-fluoro-1H-indazol-5-yl)-2-phenylvinyl)phenyl)acrylic acid]: in assay [1], the “MCF7 Viability Assay Max Response” value is “++ (++ = a single % value ≧ 40%)” and the concentration for half-maximal inhibition (IC50) is not above 100 nM. For the same molecule, in assay [2], the Emax is not below 40% and the DC50 was not above 100 nM.
Consider `CC/C(=C(/c1ccc(/C=C/C(=O)O)cc1)c1ccc2[nH]nc(F)c2c1)c1ccc(F)cc1Cl` [Compound 88, (E)-3-(4-((E)-2-(2-Chloro-4-fluorophenyl)-1-(3-fluoro-1H-indazol-5-yl)but-1-en-1-yl)phenyl)acrylic acid], for which, in assay [1], the “MCF7 Viability Assay Max Response” value is “++ (++ = a single % value ≧ 40%)” and the IC50 was not above 100 nM. In addition, in assay [2], the Emax is not below 40% and the DC50 was not above 100 nM.
`O=C(O)/C=C/c1ccc(/C(=C(\c2ccc(F)cc2Cl)C2CCC2)c2ccc3[nH]nc(F)c3c2)cc1` [Compound 89, (E)-3-(4-((E)-2-(2-Chloro-4-fluorophenyl)-2-cyclobutyl-1-(3-fluoro-1H-indazol-5-yl)vinyl)phenyl)acrylic acid]: in assay [1], the “MCF7 Viability Assay Max Response” value is on record as “++ (++ = a single % value ≧ 40%)” and the concentration for half-maximal inhibition (IC50) is not above 100 nM. For the same molecule, in assay [2], the Emax is not below 40% and the DC50 was not above 100 nM.
Take `CCOC(=O)/C=C/c1ccc(/C(=C(/CC)c2ccc(F)cc2)c2ccc3[nH]ncc3c2)cc1` [Compound 90, (E)-Ethyl 3-(4-((E)-2-(4-fluorophenyl)-1-(1H-indazol-5-yl)but-1-en-1-yl)phenyl)acrylate]: in assay [1], the “MCF7 Viability Assay Max Response” value is “+ (+ = a single % value < 40%)” and the IC50 was not above 100 nM. Besides, in assay [2], the Emax was not below 40% and the DC50 was not above 100 nM.
For the molecule `CC/C(=C(/c1ccc(/C=C/C(=O)O)cc1)c1ccc2[nH]ncc2c1)c1cccc(O)c1` [Compound 93, (E)-3-(4-((E)-2-(3-Hydroxyphenyl)-1-(1H-indazol-5-yl)but-1-en-1-yl)phenyl)acrylic acid], in assay [1], the “MCF7 Viability Assay Max Response” value is given as “++ (++ = a single % value ≧ 40%)” and the IC50 was not above 100 nM. Moreover, in assay [2], the Emax is not below 40% and the DC50 was not above 100 nM.
As to `CC/C(=C(/c1ccc(/C=C/C(=O)O)cc1)c1ccc2[nH]ncc2c1)c1ccccc1O` [Compound 94, (E)-3-(4-((E)-2-(2-Hydroxyphenyl)-1-(1H-indazol-5-yl)but-1-en-1-yl)phenyl)acrylic acid], in assay [1], the “MCF7 Viability Assay Max Response” value is “++ (++ = a single % value ≧ 40%)” and the IC50 was more than 100 nM. Moreover, in assay [2], the Emax is not below 40% and the DC50 was not above 100 nM.
As to `CC/C(=C(/c1ccc(/C=C/C(=O)O)cc1)c1ccc2[nH]ncc2c1)c1ccc(O)cc1` [Compound 95, (E)-3-(4-((E)-2-(4-Hydroxyphenyl)-1-(1H-indazol-5-yl)but-1-en-1-yl)phenyl)acrylic acid], in assay [1], the “MCF7 Viability Assay Max Response” value is given as “++ (++ = a single % value ≧ 40%)” and the half-inhibitory concentration (IC50) is not above 100 nM. Moreover, in assay [2], the Emax is not below 40% and the DC50 is not above 100 nM.
As to `CCCCOc1cccc(/C(CC)=C(\c2ccc(/C=C/C(=O)O)cc2)c2ccc3[nH]ncc3c2)c1` [Compound 96, (E)-3-(4-((E)-2-(3-Butoxyphenyl)-1-(1H-indazol-5-yl)but-1-en-1-yl)phenyl)acrylic acid], in assay [1], the “MCF7 Viability Assay Max Response” value is recorded as “++ (++ = a single % value ≧ 40%)” and the IC50 is not above 100 nM. In addition, in assay [2], the Emax is not below 40% and the DC50 is not above 100 nM.
Take `CCCCOc1ccc(/C(CC)=C(\c2ccc(/C=C/C(=O)O)cc2)c2ccc3[nH]ncc3c2)cc1` [Compound 97, (E)-3-(4-((E)-2-(4-Butoxyphenyl)-1-(1H-indazol-5-yl)but-1-en-1-yl)phenyl)acrylic acid]: in assay [1], the “MCF7 Viability Assay Max Response” value is reported as “++ (++ = a single % value ≧ 40%)” and the concentration for half-maximal inhibition (IC50) was not above 100 nM. Further, in assay [2], the Emax was not below 40% and the DC50 is not above 100 nM.
With `CC/C(=C(/c1ccc(/C=C/C(=O)O)cc1)c1ccc2[nH]ncc2c1)c1ccccc1S(C)(=O)=O` [Compound 98, (E)-3-(4-((E)-1-(1H-Indazol-5-yl)-2-(2-(methylsulfonyl)phenyl)but-1-en-1-yl)phenyl)acrylic acid], in assay [1], the “MCF7 Viability Assay Max Response” value was “++ (++ = a single % value ≧ 40%)” and the IC50 was not above 100 nM. Moreover, in assay [2], the Emax is not below 40%.
On to `CC/C(=C(/c1ccc(/C=C(\C)C(=O)O)cc1)c1ccc2[nH]ncc2c1)c1ccccc1` [Compound 99, (E)-3-(4-((E)-1-(1H-Indazol-5-yl)-2-phenylbut-1-en-1-yl)phenyl)-2-methylacrylic acid], for which, in assay [1], the “MCF7 Viability Assay Max Response” value was “++ (++ = a single % value ≧ 40%)” and the IC50 was not above 100 nM. Also, in assay [2], the Emax was not below 40% and the DC50 is not above 100 nM.
On to `CC/C(=C(\c1ccc2[nH]ncc2c1)c1ccc(/C=C/C(=O)O)cc1C)c1ccccc1` [Compound 100, (E)-3-(4-((Z)-1-(1H-Indazol-5-yl)-2-phenylbut-1-en-1-yl)-3-methylphenyl)acrylic acid], for which, in assay [1], the “MCF7 Viability Assay Max Response” value was “++ (++ = a single % value ≧ 40%)” and the half-maximal inhibitory concentration (IC50) is not above 100 nM. The Emax in assay [2] is not below 40%.
The like results for `CC/C(=C(/c1ccc(/C=C/C(=O)O)c(C)c1)c1ccc2[nH]ncc2c1)c1ccccc1` [Compound 101, (E)-3-(4-((E)-1-(1H-Indazol-5-yl)-2-phenylbut-1-en-1-yl)-2-methylphenyl)acrylic acid] were, in that order, “++ (++ = a single % value ≧ 40%)”, not above 100 nM and not below 40%.
As to `CC/C(=C(/c1ccc(/C=C/C(=O)O)c(Cl)c1)c1ccc2[nH]ncc2c1)c1ccccc1` [Compound 102, (E)-3-(4-((Z)-1-(1H-Indazol-5-yl)-2-phenylbut-1-en-1-yl)-2-chlorophenyl)acrylic acid], in assay [1], the “MCF7 Viability Assay Max Response” value is listed as “++ (++ = a single % value ≧ 40%)” and the IC50 is not above 100 nM. In addition, in assay [2], the Emax was not below 40% and the DC50 was not above 100 nM.
As to `CC/C(=C(/c1ccc(/C=C(\F)C(=O)O)cc1)c1ccc2[nH]ncc2c1)c1ccccc1` [Compound 103, (Z)-3-(4-((E)-1-(1H-Indazol-5-yl)-2-phenylbut-1-en-1-yl)phenyl)-2-fluoroacrylic acid], in assay [1], the “MCF7 Viability Assay Max Response” value was “++ (++ = a single % value ≧ 40%)” and the IC50 is more than 100 nM. Further, in assay [2], the Emax is not below 40% and the DC50 was not above 100 nM.
The corresponding values for `CC/C(=C(/c1ccc(/C=C(\Cl)C(=O)O)cc1)c1ccc2[nH]ncc2c1)c1ccccc1` [Compound 104, (Z)-3-(4-((E)-1-(1H-Indazol-5-yl)-2-phenylbut-1-en-1-yl)phenyl)-2-chloroacrylic acid] are “++ (++ = a single % value ≧ 40%)”, more than 100 nM, not below 40% and not above 100 nM.
The corresponding values for `CC/C(=C(\c1ccc2[nH]ncc2c1)c1ccc(/C=C/C(=O)O)cc1F)c1ccccc1` [Compound 105, (E)-3-(4-((Z)-1-(1H-Indazol-5-yl)-2-phenylbut-1-en-1-yl)-3-fluorophenyl)acrylic acid] are “++ (++ = a single % value ≧ 40%)”, not above 100 nM, not below 40% and not above 100 nM.
Consider `CC/C(=C(/c1ccc(/C=C/C(=O)O)c(F)c1)c1ccc2[nH]ncc2c1)c1ccccc1` [Compound 106, (E)-3-(4-((Z)-1-(1H-Indazol-5-yl)-2-phenylbut-1-en-1-yl)-2-fluorophenyl)acrylic acid], for which, in assay [1], the “MCF7 Viability Assay Max Response” value is given as “++ (++ = a single % value ≧ 40%)” and the concentration for half-maximal inhibition (IC50) is not above 100 nM. For the same molecule, in assay [2], the Emax was not below 40% and the DC50 is not above 100 nM.
Turning to `CC/C(=C(/c1ccc(/C=C/C(=O)O)c(C(F)(F)F)c1)c1ccc2[nH]ncc2c1)c1ccccc1` [Compound 107, (E)-3-(4-((Z)-1-(1H-Indazol-5-yl)-2-phenylbut-1-en-1-yl)-2-(trifluoromethyl)phenyl)acrylic acid], in assay [1], the “MCF7 Viability Assay Max Response” value is listed as “++ (++ = a single % value ≧ 40%)” and the concentration for half-maximal inhibition (IC50) is more than 100 nM. Besides, in assay [2], the Emax was not below 40% and the DC50 was not above 100 nM.

These data come from patent publication US8455534B2, “Estrogen receptor modulators and uses thereof” (Aragon Pharmaceuticals, Inc., priority 2010, dated 2013).
